According to PubChem BioAssay (NCI):
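These data come from cells grown in 96-well plates and exposed to compound for 48 hours at five concentrations. TGI: total growth inhibition.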

Assays:
Assay in all cases: growth of human tumour cells (NCI), 48 h
OVCAR-5 ovarian = system: OVCAR-5 ovarian
MOLT-4 leukemia = system: MOLT-4 leukemia
NCI/ADR-RES ovarian = system: NCI/ADR-RES ovarian
SNB-19 CNS = system: SNB-19 CNS
HCC-2998 colon = system: HCC-2998 colon
SF-539 CNS = system: SF-539 CNS
OVCAR-8 ovarian = system: OVCAR-8 ovarian
RXF 393 renal = system: RXF 393 renal
SN12C renal = system: SN12C renal
A498 renal = system: A498 renal

## Nc1[nH]c(=O)nc2snnc12
OVCAR-5 ovarian
  TGI: > 100 µM
MOLT-4 leukemia
  TGI: > 100 µM
NCI/ADR-RES ovarian
  TGI: > 100 µM
SNB-19 CNS
  TGI: > 100 µM
HCC-2998 colon
  TGI: > 100 µM
SF-539 CNS
  TGI: > 100 µM
OVCAR-8 ovarian
  TGI: > 100 µM
RXF 393 renal
  TGI: > 26.8 µM
SN12C renal
  TGI: > 100 µM

## O=C1CCCC/C1=C\c1ccc([N+](=O)[O-])cc1
OVCAR-5 ovarian
  TGI: > 100 µM
MOLT-4 leukemia
  TGI: 30.4 µM
NCI/ADR-RES ovarian
  TGI: 57.1 µM
SNB-19 CNS
  TGI: 32.5 µM
HCC-2998 colon
  TGI: 27.2 µM
SF-539 CNS
  TGI: 43.3 µM
OVCAR-8 ovarian
  TGI: 37.1 µM
SN12C renal
  TGI: 30.9 µM

## CC1CN=C(Nc2cccc(F)c2)S1 (stereo unspecified)
OVCAR-5 ovarian
  TGI: > 100 µM
NCI/ADR-RES ovarian
  TGI: > 100 µM
SNB-19 CNS
  TGI: > 100 µM
HCC-2998 colon
  TGI: > 100 µM
SF-539 CNS
  TGI: > 100 µM
OVCAR-8 ovarian
  TGI: > 100 µM
RXF 393 renal
  TGI: > 100 µM
SN12C renal
  TGI: > 100 µM

## O=C(N=Nc1ccc(Cl)cc1Cl)NNc1ccc(Cl)cc1Cl
OVCAR-5 ovarian
  TGI: 44 µM
MOLT-4 leukemia
  TGI: 50.5 µM
SNB-19 CNS
  TGI: > 100 µM
A498 renal
  TGI: 33.1 µM
HCC-2998 colon
  TGI: 23.9 µM
OVCAR-8 ovarian
  TGI: 37.6 µM
SN12C renal
  TGI: 37.4 µM

## N=c1oc2ccccc2cc1-c1nc2ccccc2[nH]1
OVCAR-5 ovarian
  TGI: > 100 µM
MOLT-4 leukemia
  TGI: > 100 µM
NCI/ADR-RES ovarian
  TGI: 64.2 µM
SNB-19 CNS
  TGI: > 100 µM
HCC-2998 colon
  TGI: > 100 µM
SF-539 CNS
  TGI: > 100 µM
OVCAR-8 ovarian
  TGI: > 100 µM
RXF 393 renal
  TGI: > 100 µM
SN12C renal
  TGI: > 100 µM

## N#Cc1c2ccc([N+](=O)[O-])cc2c(=O)n2c1[nH]c1ccc(C(F)(F)F)cc12
OVCAR-5 ovarian
  TGI: > 100 µM
MOLT-4 leukemia
  TGI: > 100 µM
NCI/ADR-RES ovarian
  TGI: > 100 µM
SNB-19 CNS
  TGI: > 100 µM
A498 renal
  TGI: > 48.8 µM
HCC-2998 colon
  TGI: > 100 µM
SF-539 CNS
  TGI: > 100 µM
OVCAR-8 ovarian
  TGI: > 100 µM
SN12C renal
  TGI: > 100 µM

## C1CCCCC2(CCCCCCCCC3(CCC1)SCCS3)SCCS2
OVCAR-5 ovarian
  TGI: > 100 µM
NCI/ADR-RES ovarian
  TGI: > 100 µM
SNB-19 CNS
  TGI: > 100 µM
A498 renal
  TGI: > 100 µM
HCC-2998 colon
  TGI: > 100 µM
SF-539 CNS
  TGI: > 100 µM
OVCAR-8 ovarian
  TGI: > 100 µM
SN12C renal
  TGI: > 100 µM

## Nc1ccccc1C#CC(=O)c1cccc(C(F)(F)F)c1
OVCAR-5 ovarian
  TGI: 23.7 µM
NCI/ADR-RES ovarian
  TGI: 47.3 µM
SNB-19 CNS
  TGI: 27.6 µM
A498 renal
  TGI: 32.5 µM
SF-539 CNS
  TGI: 10.9 µM
RXF 393 renal
  TGI: 5.07 µM
SN12C renal
  TGI: 4.81 µM

## N#CCCN(CCC#N)c1ccc(/C=C2\N=C(c3ccccc3)N(c3ccc(C(=O)O)cc3)C2=O)cc1
OVCAR-5 ovarian
  TGI: > 100 µM
NCI/ADR-RES ovarian
  TGI: > 100 µM
SNB-19 CNS
  TGI: > 100 µM
A498 renal
  TGI: > 100 µM
SF-539 CNS
  TGI: 61.5 µM
OVCAR-8 ovarian
  TGI: 73.1 µM
RXF 393 renal
  TGI: > 100 µM
SN12C renal
  TGI: > 100 µM

## CCC(C)C(N)C(=O)N/N=C\c1c2c(nc3ccccc13)-c1cc3c(c(=O)n1C2)COC(=O)[C@]3(O)CC (stereo partly specified)
OVCAR-5 ovarian
  TGI: > 43.5 µM
MOLT-4 leukemia
  TGI: 1.86 µM
SNB-19 CNS
  TGI: 0.69 µM
A498 renal
  TGI: 1.43 µM
HCC-2998 colon
  TGI: 15.2 µM
SF-539 CNS
  TGI: 0.0223 µM
OVCAR-8 ovarian
  TGI: > 20 µM
RXF 393 renal
  TGI: 0.218 µM
SN12C renal
  TGI: > 32.5 µM

## CC1(C)OCC(C2OC3OC(C)(C)OC3C2c2ccccc2)O1 (stereo unspecified)
OVCAR-5 ovarian
  TGI: > 100 µM
MOLT-4 leukemia
  TGI: > 100 µM
NCI/ADR-RES ovarian
  TGI: > 100 µM
SNB-19 CNS
  TGI: > 100 µM
HCC-2998 colon
  TGI: > 100 µM
SF-539 CNS
  TGI: > 100 µM
OVCAR-8 ovarian
  TGI: > 100 µM
RXF 393 renal
  TGI: > 100 µM
SN12C renal
  TGI: > 100 µM

## COC(=O)C1Cc2c(OC)ccc(OC)c2C(O)C1C(=O)OC (stereo unspecified)
OVCAR-5 ovarian
  TGI: > 100 µM
MOLT-4 leukemia
  TGI: > 100 µM
NCI/ADR-RES ovarian
  TGI: > 100 µM
SNB-19 CNS
  TGI: > 100 µM
SF-539 CNS
  TGI: > 100 µM
OVCAR-8 ovarian
  TGI: > 100 µM
RXF 393 renal
  TGI: > 100 µM
SN12C renal
  TGI: > 100 µM

## CC1(C)CC(=O)c2c(nc3c(ccc4ccccc43)c2-c2ccc(NC(=O)CCC(=O)Nc3ccc(-c4c5c(nc6c4ccc4ccccc46)CC(C)(C)CC5=O)cc3)cc2)C1
OVCAR-5 ovarian
  TGI: > 100 µM
MOLT-4 leukemia
  TGI: > 100 µM
NCI/ADR-RES ovarian
  TGI: > 100 µM
SNB-19 CNS
  TGI: > 100 µM
SF-539 CNS
  TGI: > 100 µM
OVCAR-8 ovarian
  TGI: > 100 µM
RXF 393 renal
  TGI: > 100 µM
SN12C renal
  TGI: > 100 µM

## COc1ccc(-c2oc3cc(OC)c(OC)c(O)c3c(=O)c2OC)cc1
OVCAR-5 ovarian
  TGI: > 100 µM
MOLT-4 leukemia
  TGI: > 100 µM
NCI/ADR-RES ovarian
  TGI: > 100 µM
SNB-19 CNS
  TGI: > 100 µM
HCC-2998 colon
  TGI: > 100 µM
SF-539 CNS
  TGI: > 100 µM
OVCAR-8 ovarian
  TGI: > 100 µM
RXF 393 renal
  TGI: 78.8 µM
SN12C renal
  TGI: > 100 µM

## c1ccc2cc3c(NC4=NCCO4)cccc3cc2c1
OVCAR-5 ovarian
  TGI: > 100 µM
MOLT-4 leukemia
  TGI: > 100 µM
NCI/ADR-RES ovarian
  TGI: > 100 µM
SNB-19 CNS
  TGI: > 100 µM
A498 renal
  TGI: > 100 µM
SF-539 CNS
  TGI: > 100 µM
OVCAR-8 ovarian
  TGI: > 100 µM
RXF 393 renal
  TGI: > 100 µM
SN12C renal
  TGI: > 100 µM

## CN=C(Nc1ccc(OC)c2ccccc12)SC
OVCAR-5 ovarian
  TGI: > 10 µM
MOLT-4 leukemia
  TGI: > 10 µM
NCI/ADR-RES ovarian
  TGI: > 10 µM
SNB-19 CNS
  TGI: > 10 µM
HCC-2998 colon
  TGI: > 10 µM
SF-539 CNS
  TGI: > 10 µM
OVCAR-8 ovarian
  TGI: > 10 µM
SN12C renal
  TGI: > 10 µM

## Cc1ccc(/C=C2\NC(=S)NC2=O)cc1
OVCAR-5 ovarian
  TGI: > 100 µM
MOLT-4 leukemia
  TGI: > 100 µM
NCI/ADR-RES ovarian
  TGI: > 100 µM
SNB-19 CNS
  TGI: > 100 µM
HCC-2998 colon
  TGI: > 100 µM
SF-539 CNS
  TGI: > 100 µM
OVCAR-8 ovarian
  TGI: > 100 µM
RXF 393 renal
  TGI: > 100 µM
SN12C renal
  TGI: > 100 µM

## O=c1[nH]c(SCc2cccc([N+](=O)[O-])c2)nc2nc[nH]c12
OVCAR-5 ovarian
  TGI: > 100 µM
MOLT-4 leukemia
  TGI: > 100 µM
NCI/ADR-RES ovarian
  TGI: > 100 µM
SNB-19 CNS
  TGI: > 100 µM
A498 renal
  TGI: > 100 µM
OVCAR-8 ovarian
  TGI: > 100 µM
RXF 393 renal
  TGI: > 100 µM
SN12C renal
  TGI: > 100 µM

## O=c1[nH]ncc2[nH]c3c4ccccc4ccc3c12
OVCAR-5 ovarian
  TGI: > 100 µM
MOLT-4 leukemia
  TGI: > 100 µM
NCI/ADR-RES ovarian
  TGI: > 100 µM
HCC-2998 colon
  TGI: > 100 µM
SF-539 CNS
  TGI: > 100 µM
OVCAR-8 ovarian
  TGI: > 100 µM
RXF 393 renal
  TGI: > 100 µM

## COc1ccc2c(O)c(S(=O)(=O)c3ccc(C)cc3)c(=O)oc2c1OC
OVCAR-5 ovarian
  TGI: > 100 µM
MOLT-4 leukemia
  TGI: > 100 µM
NCI/ADR-RES ovarian
  TGI: > 100 µM
SNB-19 CNS
  TGI: > 100 µM
HCC-2998 colon
  TGI: > 100 µM
SF-539 CNS
  TGI: > 100 µM
OVCAR-8 ovarian
  TGI: > 100 µM
RXF 393 renal
  TGI: > 100 µM
SN12C renal
  TGI: > 100 µM
